{"source": "patent US12214058B2", "about": "“Imaging methods using deuterated compounds” (Genentech, Inc., priority 2014, dated 2025)", "key": {"[1]": {"assay": "Microsomal stability assay, rhesus liver microsomes", "type": "in vitro ADME", "experimental": "Microsomal stability assays The tracer [^18F][A]-d2 or [^18F][A] was dissolved in potassium phosphate (Kpi) buffer (100 mM) at concentration 500-600 μCi/mL. The non-radioactive 7 and 10 were dissolved in Kpi buffer at 10 μM concentration. The reaction vessel was charged with human or mouse liver microsome suspension (12.5 μL, 20 mg/mL) followed by Kpi buffer (388 μL, 10 mM), NADPH (50 μL, 10 mM) and incubated at 37° C. for 5-10 min. A solution of the radioactive [^18F][A]-d2 or [^18F][A] (50 μL, […]) or non-radioactive 7 or 8 (50 μL, 10 μM) were added to the reaction vessel and the mixture was incubated at 37° C. Aliquots (50 μL) of the reaction mixture were taken at 5, 15 and 45 minutes post addition of the tested compound, mixed with ice-cold acetonitrile (100 μL) and centrifuged. The supernatant was analyzed by LCMS (System E). The radiolabeled tracers [^18F][A] and [^18F][A]-d2 (n=3) were incubated with human, rhesus or mouse liver microsome suspension with or without NADPH at 37° C. and the mixture was analyzed for a presence of radioactive metabolites at 5, 15 and 45 min. In the presence of mouse and rhesus liver microsomes, both the [^18F][A] and [^18F][A]-d2 metabolized rapidly to ^18F-fluoride (retention time (rt)=0.38 min), and two radioactive metabolites M2 and M1 (rt=1.2 and 1.4 min). […]"}, "[2]": {"tested_on": "tau (NFTs) in human brain tissues", "assay": "Autoradiography on postmortem human brain tissues", "type": "binding", "experimental": "Autoradiography The tracer [^18F][A] or [^18F][A]-d2 was dissolved in PBS containing 5% DMSO and 5% ethanol at final concentration 40 μCi/mL. Then 0.5 ml of stock solution was transferred to a microscope slide with 5 μm thick freshly dried section of a tissue and incubated for 90 min at room temperature. The slides were washed by dipping into following solutions: PBS for 1 min, 70% ethanol 2 min, 30% ethanol 2 min and PBS 1 min. The samples were dried at room temperature for 30 min and exposed to phosphorimager plate for 20 h. The exposed plates were scanned at 25 μm resolution.\nAutoradiographic evaluation of [^18F][A] and [^18F][A]-d2 was performed using brain tissues collected postmortem from human donors. […] The positive staining was found in grey matter of tissues containing high level of NFTs and high AD-amyloid characterized as Braak score 5. […] The NFT and Aβ-amyloid burden was measured by standard immunohistochemical methods."}, "[3]": {"assay": "Microsomal stability assay, mouse liver microsomes", "type": "in vitro ADME", "details": "radiolabeled, 5 min, n=3", "experimental": "Microsomal stability assays The tracer [^18F][A]-d2 or [^18F][A] was dissolved in potassium phosphate (Kpi) buffer (100 mM) at concentration 500-600 μCi/mL. The non-radioactive 7 and 10 were dissolved in Kpi buffer at 10 μM concentration. The reaction vessel was charged with human or mouse liver microsome suspension (12.5 μL, 20 mg/mL) followed by Kpi buffer (388 μL, 10 mM), NADPH (50 μL, 10 mM) and incubated at 37° C. for 5-10 min. A solution of the radioactive [^18F][A]-d2 or [^18F][A] (50 μL, 250-300 μCi) or non-radioactive 7 or 8 (50 μL, 10 μM) were added to the reaction vessel and the mixture was incubated at 37° C. Aliquots (50 μL) of the reaction mixture were taken at 5, 15 and 45 minutes post addition of the tested compound, mixed with ice-cold acetonitrile (100 μL) and centrifuged. The supernatant was analyzed by LCMS (System E)."}, "[4]": {"assay": "Dynamic PET in anesthetized rhesus", "type": "in vivo", "details": "370 MBq i.v. bolus, PET over 240 min, versus [18F][A] and 18F T807", "experimental": "[^18F][A]-d2, [^18F][A] or ^18F T807 (see Chien et al., J. Alzheimers Dis, 38:171-84 (2014)) (370 MBq (10 mCi)) was intravenous bolus injected into an anesthetized rhesus, and dynamic PET data acquired over 240 minutes. […] Data was collected from the same animal but on different days for each probe."}}, "data": [{"smiles": "[2H]C([2H])([18F])CC1CCN(c2ccn3c(n2)nc2ccccc23)CC1", "note": "[[^18F][A]-d2, 1,1-dideutero-2-(1-(benzo[4,5]imidazo[1,2-a]pyrimidine-2-yl)piperidin-4-yl)-1-[^18F]fluoroethane]", "values": [{"measurement": "stability of parent compound compared with mouse liver microsomes", "setting": "[1]", "value": "slightly more stable"}, {"measurement": "staining of negative control tissues", "setting": "[2]; high or moderate amyloid burden but no NFTs, Braak score 3 or 2", "value": "not positively stained"}, {"measurement": "autoradiographic binding pattern", "setting": "[2]; human brain tissues, positive staining in grey matter with high NFTs, Braak score 5", "value": "tau specific binding patterns"}, {"measurement": "amount of parent compound", "setting": "[3]", "value": "2.0±0.3", "unit": "%"}, {"measurement": "stability / skull uptake of free fluoride", "setting": "[4]", "value": "increased stability reflected by a reduction of skull uptake of free fluoride"}]}]}
